US20220324865A1 (Bayer Aktiengesellschaft, priority 2018, published 2022)

Target: T1, human EP3 receptor (Homo sapiens, UniProt P43115)
T1 construct: expressed in transfected cells; host or cells: CHO K1 (Chinese Hamster Ovary), stably co-transfected with Galpha16 and mitochondrial clytin
T1 sequence (P43115 1-390): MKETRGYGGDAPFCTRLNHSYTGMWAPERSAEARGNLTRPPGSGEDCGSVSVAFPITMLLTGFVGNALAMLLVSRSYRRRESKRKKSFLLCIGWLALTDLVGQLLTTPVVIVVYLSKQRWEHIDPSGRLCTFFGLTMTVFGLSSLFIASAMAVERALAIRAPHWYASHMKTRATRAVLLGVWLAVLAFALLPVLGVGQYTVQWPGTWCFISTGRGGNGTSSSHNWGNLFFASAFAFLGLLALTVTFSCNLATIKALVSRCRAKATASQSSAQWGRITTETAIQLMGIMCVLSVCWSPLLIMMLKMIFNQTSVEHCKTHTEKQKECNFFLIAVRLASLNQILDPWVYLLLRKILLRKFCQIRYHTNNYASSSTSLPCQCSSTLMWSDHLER
Assay: Cellular in vitro assay for determining EP3 receptor activity (human EP3 cell line, sulprostone-stimulated calcium luminescence)
Assay type: cell-based
Conditions: CHO cells expressing human EP3 and mitochondrial Clytin; antagonist mode, sulprostone at EC50; read-out: EP3 CHO mtCLY ANTAG IC50
In short: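 CHO K1 cells stably expressing human EP3 with Gα16 and mitochondrial Clytin, loaded overnight with coelenterazine. Compounds added 10 min before sulprostone at its EC50; antagonism read immediately as reduced calcium-driven luminescence, quadruplicate points.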

| Structure (SMILES) | IC50 [nM] |
| --- | --- |
| Cc1cccc2ncc(-c3cn4nc(C(=O)NC(c5ccccc5)C(F)F)c(C(C)C)c4c(=O)[nH]3)cc12 (centres unmarked) [Example 4-68, N-(2,2-Difluoro-1-phenylethyl)-3-isopropyl-6-(5-methyl-3-quinolyl)-4-oxo-5H-pyrazolo[1,5-a]pyrazine-2-carboxamide] | 3 |
| Cc1cc(-c2cn3nc(C(=O)NCCC(O)C(F)(F)F)c(C4CC4)c3c(=O)[nH]2)ccc1Cl (single isomer, unassigned) [6-311] | 1.05 |
| Cc1cccc2ncc(-c3cn4nc(C(=O)NC5CCOc6ccccc65)c(C(C)C)c4c(=O)[nH]3)cc12 (centres unmarked) [Example 4-65, N-(3,4-Dihydro-2H-chromen-4-yl)-3-isopropyl-6-(5-methylquinolin-3-yl)-4-oxo-4,5-dihydropyrazolo[1,5-a]pyrazine-2-carboxamide] | 1.15 |
| Cc1ccc(-c2cn3nc(C(=O)NC4(c5ccc(F)cc5)CC4)cc3c(=O)[nH]2)cc1C [6-24] | 2.03 |
| CN(C)C(CNC(=O)c1cc2c(=O)[nH]c(-c3ccc4ccccc4c3)cn2n1)c1cccc(C(F)(F)F)c1 (centres unmarked) [Example 2-15, N-{2-(Dimethylamino)-2-[3-(trifluormethyl)phenyl]ethyl}-6-(2-naphthyl)-4-oxo-4,5-dihydropyrazolo[1,5-a]pyrazine-2-carboxamide] | 9.55 |
| Cc1cccc2ncc(-c3cn4nc(C(=O)NC(C)c5ccc(S(N)(=O)=O)cc5)c(C(C)C)c4c(=O)[nH]3)cc12 (centres unmarked) [Example 4-53, 3-Isopropyl-6-(5-methyl-3-quinolyl)-4-oxo-N-[1-(4-sulfamoylphenyl)ethyl]-5H-pyrazolo[1,5-a]pyrazine-2-carboxamide] | 1.1 |
| COC(=O)N1CC(NC(=O)c2cc3c(=O)[nH]c(-c4ccc(C)c(C)c4)cn3n2)(c2ccc(OC)cc2)C1 [Example 1-66, Methyl 3-({[6-(3,4-dimethylphenyl)-4-oxo-4,5-dihydropyrazolo[1,5-a]pyrazin-2-yl]carbonyl}amino)-3-(4-methoxyphenyl)azetidine-1-carboxylate] | 1.65 |
| Cc1ccc(-c2cn3nc(C(=O)NC(C)(C)C4CC4)c(C(F)(F)F)c3c(=O)[nH]2)cc1Cl [6-191] | 0.97 |
| Cc1cccc2ncc(-c3cn4nc(C(=O)NC(C)c5ccccn5)c(C(C)C)c4c(=O)[nH]3)cc12 (centres unmarked) [Example 4-54, 3-Isopropyl-6-(5-methyl-3-quinolyl)-4-oxo-N-[1-(2-pyridyl)ethyl]-5H-pyrazolo[1,5-a]pyrazine-2-carboxamide] | 2 |
| O=C(NC1CCCc2ccccc21)c1cc2c(=O)[nH]c(-c3ccc4ccccc4c3)cn2n1 (centres unmarked) [Example 2-32, 6-(2-Naphthyl)-4-oxo-N-[1,2,3,4-tetrahydronaphthalin-1-yl]-4,5-dihydropyrazolo[1,5-a]pyrazine-2-carboxamide] | 2.8 |
| Cc1c(C(=O)NC(C)c2ccc(F)cc2)nn2c(C)c(-c3ccc4ccccc4c3)[nH]c(=O)c12 (centres unmarked) [Example 3-21, N-[1-(4-Fluorophenyl)ethyl]-3,7-dimethyl-6-(2-naphthyl)-4-oxo-5H-pyrazolo[1,5-a]pyrazine-2-carboxamide] | 1.8 |
| O=C(NCC(O)C(F)(F)F)c1nn2cc(-c3ccc4c(c3)OCCO4)[nH]c(=O)c2c1C1CC1 (racemic) [6-465] | 1.75 |
| CC(C)(C)OC(=O)NCC(NC(=O)c1cc2c(=O)[nH]c(-c3ccc4cccnc4c3)cn2n1)c1ccc(F)cc1 (centres unmarked) [6-29] | 2.27 |
| Cc1cc(-c2cn3nc(C(=O)N[C@H](C)c4ccc(F)cc4)c(C4CC4)c3c(=O)[nH]2)ccc1C(F)(F)F [Example 1-131, 3-Cyclopropyl-N-[(1R)-1-(4-fluorophenyl)ethyl]-6-[3-methyl-4-(trifluoromethyl)phenyl]-4-oxo-4,5-dihydropyrazolo[1,5-a]pyrazine-2-carboxamide] | 5.45 |
| CC(C)(O)[C@@H](NC(=O)c1nn2cc(-c3ccc(C(F)(F)F)c(F)c3)[nH]c(=O)c2c1C1CC1)c1ccc(F)cc1 [6-588] | 5.6 |
| O=C(Nc1cccc2ncccc12)c1cc2c(=O)[nH]c(-c3ccc4ccccc4c3)cn2n1 [Example 2-45, N-(Chinolin-5-yl)-6-(2-naphthyl)-4-oxo-4,5-dihydropyrazolo[1,5-a]pyrazine-2-carboxamide] | 6.05 |
| CC(NC(=O)c1cc2c(=O)[nH]c(-c3ccc4ccccc4c3)cn2n1)c1ccc(Cl)c(Cl)c1 (centres unmarked) [Example 2-51, N-[1-(3,4-Dichlorphenyl)ethyl]-6-(2-naphthyl)-4-oxo-4,5-dihydropyrazolo[1,5-a]pyrazine-2-carboxamide] | 2.05 |
| Cc1cccc2ncc(-c3cn4nc(C(=O)NC(C)c5ccccc5OC(F)F)c(C(C)C)c4c(=O)[nH]3)cc12 (centres unmarked) [Example 4-46, N-{1-[2-(Difluoromethoxy)phenyl]ethyl}-3-isopropyl-6-(5-methylquinolin-3-yl)-4-oxo-4,5-dihydropyrazolo[1,5-a]pyrazine-2-carboxamide] | 1.05 |
| Cc1cc(-c2cn3nc(C(=O)NCC(O)(C(F)(F)F)C(F)(F)F)c(C4CC4)c3c(=O)[nH]2)ccc1F [6-658] | 7 |
| O=C(NCc1cc(F)cc(F)c1)c1cc2c(=O)[nH]c(-c3ccc4ccccc4c3)cn2n1 [Example 2-31, N-(3,5-Difluorbenzyl)-6-(2-naphthyl)-4-oxo-4,5-dihydropyrazolo[1,5-a]pyrazine-2-carboxamide] | 2.55 |
| CN1CCOc2cc(-c3cn4nc(C(=O)N[C@H](CCO)c5ccc(F)cc5)cc4c(=O)[nH]3)ccc21 [Example 1-37, N-[(1R)-1-(4-Fluorophenyl)-3-hydroxopyl]-6-(4-methyl-3,4-dihydro-2H-1,4-benzoxazin-7-yl)-4-oxo-4,5-dihydropyrazolo[1,5-a]pyrazine-2-carboxamide] | 0.95 |
| Cc1cccc2ncc(-c3cn4nc(C(=O)N[C@H](CCO)c5ccccc5)cc4c(=O)[nH]3)cc12 [Example 1-114, N-[(1R)-3-Hydroxy-1-phenylpropyl]-6-(5-methylquinolin-3-yl)-4-oxo-4,5-dihydropyrazolo[1,5-a]-pyrazine-2-carboxamide] | 3.15 |
| CC(C)CN1CC(NC(=O)c2nn3cc(-c4ccc5ccccc5c4)[nH]c(=O)c3c2C(F)(F)F)(c2ccc(F)cc2)C1 [Example 1-128, N-[3-(4-Fluorophenyl)-1-(2-methylpropyl)azetidin-3-yl]-6-(naphthalen-2-yl)-4-oxo-3-(trifluoromethyl)-4,5-dihydropyrazolo[1,5-a]pyrazine-2-carboxamide] | 2.9 |
| CCn1nccc1C(C)NC(=O)c1nn2cc(-c3cnc4cccc(C)c4c3)[nH]c(=O)c2c1C(C)C (centres unmarked) [Example 4-34, N-[1-(1-Ethyl-1H-pyrazol-5-yl)ethyl]-3-isopropyl-6-(5-methylquinolin-3-yl)-4-oxo-4,5-dihydropyrazolo[1,5-a]pyrazine-2-carboxamide] | 1.09 |
| Cc1ccc(-c2cn3nc(C(=O)N[C@H](CCO)c4ccc(F)cc4)cc3c(=O)[nH]2)cc1C [Example 1-39, 6-(3,4-Dimethylphenyl)-N-[(1R)-1-(4-fluorophenyl)-3-hydroxpropyl]-4-oxo-4,5-dihydropyrazolo-[1,5-a]pyrazine-2-carboxamide] | 0.265 |
| Cc1cc(-c2cn3nc(C(=O)NC4CC(F)(F)C4)c(C4CC4)c3c(=O)[nH]2)ccc1Cl [6-297] | 1.15 |
